Literature values, collected in article PMC3983144 (Bioconjugate chemistry, 2014).
Square brackets hold non-standard residues; d marks the D form. Nle = CCCC[C@H](N)C(=O)O

System: MC1R
Conditions: B16F1 melanoma cells

IC50: 0.27 nM
Substance: Ac-[Nle]DH[dF]RWGK-NH2 [NAPamide]
